US20250032488A1, “METHODS OF TREATMENT USING LOU064” (NOVARTIS AG, priority 2021, published 2025)
Read-outs that look alike come from different tables or passages of the source.

What was measured:
[1] = system: BALB/c mice; experiment: Ovalbumin induced anaphylaxis mouse model: BALF cell counts; format: in vivo; conditions: 10 mg/kg, 30 mg/Kg p.o. B.I.D., OVA-sensitized mice with poly I:C
Method: This experiment was carried out to investigate the anti-inflammatory effect of LOU064 (10 mg and 30 mg/Kg in OVA-sensitized mice instilleed with polyinosine-polycytidylic acid (poly I: C).
Mice were actively sensitised with ovalbumin (15 μg, s.c.) and 25 μL of Imject Alum on days 0, 7 and 14. In order to elicit a local inflammatory response in the lung, mice were repeatedly exposed on days 21-24 with an aerosol of 1% w/v ovalbumin in phosphate buffered saline (PBS), generated with an ultrasonic nebuliser (Aerogen) for 20 min. 16 h after the final exposure to OVA on day 24, polyinosine-polycytidylic acid (poly I: C, 100 μg/animal) or the vehicle (PBS) was delivered intratracheally with a Microsprayer (model IA-1C with FMJ-250 high pressure syringe, Penn-Century) under anaesthesia with ketamine (100 mg/Kg, i.p.) and xylazine (10 mg/Kg, i.p.). […]
24 h after the final OVA challenge, blood samples were collected by venepuncture into pre-chilled Li Hep tubes. […] The cell pellets were then re-suspended in 1.6 mL of phosphate buffered saline and the BAL cells were then analysed for total and differential numbers. Total and differential cell counts of the BAL fluid samples were measured using a XT-2000iV analyser (Sysmex). […]

[2] = system: subjects with CSU; experiment: 52-week open label extension study in CSU: safety
Method: In a 52-week open label extension study to evaluate the long-term safety and tolerability of LOU064 in eligible subjects with CSU who participated in the Phase 2b study the dose used was 100 mg b.i.d.

[3] = molecular target: T1, BTK (Mus musculus, UniProt P35991); experiment: BTK occupancy in spleen and lung, RPA study; format: in vivo, mice; conditions: single dose 30 mg/kg, 3 hours after eliciting the Arthus reaction
T1 construct: each spleen was crushed and lysed in a GentleMACS; from tissue; host or cells: mouse spleen (BALB/c, C57Bl6) and lung (C57Bl6)
T1 sequence (P35991 whole entry): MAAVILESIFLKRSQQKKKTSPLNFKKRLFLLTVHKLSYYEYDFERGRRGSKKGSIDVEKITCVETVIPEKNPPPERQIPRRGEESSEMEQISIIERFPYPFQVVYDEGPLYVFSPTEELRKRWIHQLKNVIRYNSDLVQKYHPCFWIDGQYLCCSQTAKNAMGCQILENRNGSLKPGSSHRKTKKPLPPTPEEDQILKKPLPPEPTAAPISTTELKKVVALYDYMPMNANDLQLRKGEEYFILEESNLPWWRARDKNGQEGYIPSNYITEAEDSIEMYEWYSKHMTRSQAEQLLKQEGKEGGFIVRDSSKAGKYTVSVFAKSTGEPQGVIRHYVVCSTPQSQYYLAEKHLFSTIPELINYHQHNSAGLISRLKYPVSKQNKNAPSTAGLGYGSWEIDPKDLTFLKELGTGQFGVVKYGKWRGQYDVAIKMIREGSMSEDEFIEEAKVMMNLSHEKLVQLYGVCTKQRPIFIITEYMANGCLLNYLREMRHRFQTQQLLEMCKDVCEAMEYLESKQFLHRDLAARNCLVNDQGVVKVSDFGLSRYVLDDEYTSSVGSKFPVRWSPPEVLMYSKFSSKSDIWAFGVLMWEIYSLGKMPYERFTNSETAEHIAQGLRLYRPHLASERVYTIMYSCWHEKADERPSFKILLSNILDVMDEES
Method: For BTK occupancy in spleen, the experiment was performed as described in the PCA example. For lung BTK occupancy, lysates were prepared from complete lungs including tracheas after perfusing the organs with saline to remove blood in the same manner as for spleen (except that the lysis buffer volume was 500 μl). The lung lysates were then analyzed for free BTK in a separate ELISA. This consisted of a capture step with anti-BTK (Cell Signaling Technologies, #8547, carrier free). Then the captured BTK protein was incubated with 1 μM of covalent biotinylated BTK probe for 1 hour at room temperature. The BTK-bound biotinylated probe was detected by with a streptavidin-HRP conjugate (Cell Signaling Technologies, #3999, used at a dilution of 1:1′000) and a chemiluminescence substrate (Supersignal ELISA Pico, Thermo Scientific, #37070). The luminescence values were corrected for ELISA background reads from control samples measured in absence of BTK capture antibody for the total BTK ELISA and in absence of probe for the BTK-bound ELISA, respectively. The relative BTK occupancy was calculated as the ratio of free BTK (signal of the covalent biotinylated probe bound BTK) to total BTK for each sample: R=free BTK/total BTK. The individual Ri values were then normalized to the vehicle group and expressed as percent occupancy: (average of Ri vehicle group−Ri)/(average of Ri vehicle group)*100%.

[4] = system: FccR1 mediated basophil activation; conditions: cited from earlier work
[5] = system: C57BI6 mice; experiment: Reverse passive Arthus (RPA) reaction in mouse skin: skin swelling; format: in vivo; conditions: for Inhibition of the Arthus reaction (skin swelling): dosed 2 hours prior to induction, read at 3 hours
Method: The effect of a single dose of LOU064 was tested in the acute mouse reverse passive Arthus (RPA) model to assess its effect on a dermal anaphylaxis reaction triggered by IgG immune complexes and mediated by FcGRIIl on mast cell.
Female C57BI6 mice (Charles River, France), 8-10 weeks of age, were used. The back of the mice was shaved 24 hours prior to the skin injections. This allowed any potential irritation of the skin to resolve. The Arthus reaction was triggered two hours after compound dosing in the dose-response study or at the timepoints noted in the time-course study. To elicit the Arthus reaction, 50 μl of PBS (control site) or polyclonal rabbit anti-ovalbumin IgG at a concentration of 30 μg in PBS (C6534, Sigma) was injected i.d. into the dorsal skin. The intradermal injection was followed immediately by an i.v. injection of 200 μl ovalbumin (20 mg/kg) in saline (05450 Fluka). Three hours after the injection of the ovalbumin the mice were killed, bled for monitoring of the compound concentration and the spleens removed for BTK occupancy measurement. The thickness of the injected control and anti-ovalbumin IgG skin sites was measured using a digital caliper, and the thickness of the anti-ovalbumin IgG injected sites minus the saline control sites were then calculated for the mice in all treatment groups.

[6] = 100 mg B.I.D., N = 100, interim cut off 31 Aug. 2020
[7] = ES, 100 mg b.i.d., N = 183, median 35.14 wks, listed as remibrutinib

For C=CC(=O)N(C)CCOc1c(N)ncnc1-c1cc(F)cc(NC(=O)c2ccc(C3CC3)cc2F)c1C [LOU064, N-(3-(6-amino-5-(2-(N-methylacrylamido)ethoxy)pyrimidin-4-yl)-5-fluoro-2-methylphenyl)-4-cyclopropyl-2-fluorobenzamide], the “Numbers of cells involved in lung anaphylaxis (BALF)” value [1] was “significantly reduced”, the Death [2, 6] was 0 n and the “Discontinued study due to an SAE(s)” value [2, 6] was 0 n. For the same compound, the “Discontinued study due to any AE(s)” value [2, 6] was 0 n, the “AE preferred term diarrhea” value ([2]; 100 mg b.i.d., N = 100 interim) was 4% and the “AE preferred term dizziness” value ([2]; 100 mg b.i.d., N = 100 interim) was 3%. For the same compound, the “AE preferred term gastroenteritis” value ([2]; 100 mg b.i.d., N = 100 interim) was 3%, the “AE preferred term headache” value ([2]; 100 mg b.i.d., N = 100 interim) was 6% and the “Bleeding events or events under SOC Blood and lymphatic system disorders” value ([2]; 100 mg b.i.d., N = 100 interim) was “no bleeding events”. The “SOC Infections and infestations” value ([2]; 100 mg b.i.d., N = 100 interim) was 14%, the “SOC Skin and subcutaneous tissue disorders” value ([2]; 100 mg b.i.d., N = 100 interim) was 13% and the Safety signal ([2]; 100 subjects, median exposure 17.86 weeks) was “No safety signal”. The “ECG findings or QT of >500 ms” value ([2]; ES and CS, any patient) was “no significant ECG findings or QT of >500 ms”, the Deaths ([2]; ES, 100 mg b.i.d., N = 183) was “no deaths” and the “Incidence of AESI bleeding” value ([2]; ES, 100 mg b.i.d., N = 183) was 4.4%. For the same compound, the “Incidence of AESI cytopenias” value ([2]; ES, 100 mg b.i.d., N = 183) was 0.5%, the “Incidence of AESI infections” value ([2]; ES, 100 mg b.i.d., N = 183) was 23% and the “Skin and subcutaneous tissue disorders (AEs by primary system organ class)” value ([2]; ES, 100 mg b.i.d., N = 183, median 35.14 wks) was 32 n. For the same compound, the “Discontinued study treatment due to AE(s)” value [2, 7] was 6 n, the “Headache (AEs by PT)” value [2, 7] was 6.6% and the “Infections and infestations (AEs by primary system organ class)” value [2, 7] was 23.0%. For the same compound, the “Patients with SAE(s)” value [2, 7] was 4 n, the “Skin and subcutaneous tissue disorders (AEs by primary system organ class)” value [2, 7] was 17.5% and the “Patients with newly occurring isolated ALT>3xULN” value ([2]; ES, normalized within 4 weeks) was 1 patient. The “BTK occupancy kinetic in spleen and lung compared to effect on skin swelling” value [3] was “very similar kinetic”, the “Trough level inhibition of CD63” value ([4]; MAD, 10 mg q.d., last day of dosing) was 80% and the “Inhibition of CD203c+ basophils” value ([4]; MAD, 200 mg b.i.d) was 67%. The “Inhibition of CD203c+ basophils” value ([4]; MAD, 400 mg q.d.) was 63%, the “Inhibition of blood basophil activation measured by CD63 expression” value ([4]; MAD, daily dose greater than or equal to 50 mg, day 1-12 and several days beyond) was “full inhibition” and the “Trough inhibition of CD63” value ([4]; MAD, greater than or equal to 100 mg q.d., last day of dosing) was “greater than 97%”. For the same compound, the “Inhibition of CD203c+ basophil activation marker” value ([4]; SAD, 200 mg cohort, at 8h) was “up to 79.4%”, the “Inhibition of basophil activation measured by CD63” value ([4]; SAD, doses of 60 mg) was over 89% and the “Inhibition of basophil activation measured by CD63” value ([4]; SAD, higher doses, 24 h post dose) was about 100%. The “Inhibition of skin swelling (time-course study)” value ([5]; 30 mg/kg p.o., Arthus reaction elicited 2 hours post dosing) was 65.7%, the “Inhibition of the Arthus reaction (skin swelling)” value ([5]; 30 mg/kg single p.o.) was 73% and the “Inhibition of the Arthus reaction (skin swelling)” value ([5]; 100 mg/kg single p.o.) was 61.2%. For the same compound, the “Timepoint at which pharmacologic effect in the skin returned to vehicle levels” value ([5]; single dose 30 mg/kg p.o.) was at most 45 hours.
